According to PMC5218480 (PLoS ONE, 2017):

System: MV-4-11 cells
Experiment: Gene expression microarray analysis (Affymetrix PrimeView) and GSEA
Type: cell-based, human
Parameters: RFU PODN (11730768_x_at) / Fold change /veh PODN (11730768_x_at) / RFU LINC00158 (11744669_a_at) / Fold change /veh LINC00158 (11744669_a_at) / RFU DUSP10 (11751237_a_at) / Fold change /veh DUSP10 (11751237_a_at) / RFU ID3 (11757404_x_at) / Fold change /veh ID3 (11757404_x_at) / RFU PLEKHG5 (11737974_s_at) / Fold change /veh PLEKHG5 (11737974_s_at) / RFU LRRC4B (11730491_at) / Fold change /veh LRRC4B (11730491_at) / RFU GIMAP4 (11747438_a_at) / Fold change /veh GIMAP4 (11747438_a_at) / RFU KRT8 (11758183_x_at) / Fold change /veh KRT8 (11758183_x_at) / RFU CNN1 (11734310_a_at) / Fold change /veh CNN1 (11734310_a_at) / RFU VPS37D (11726825_at) / Fold change /veh VPS37D (11726825_at) / RFU C10orf10 (11716522_x_at) / Fold change /veh C10orf10 (11716522_x_at) / RFU KIR2DL2 /// KIR2DL4 /// KIR2DL5A /// KIR2DL5B /// KIR2DS1 /// KIR2DS2 /// KIR2DS3 /// KIR2DS4 /// KIR3DL3 /// KIR3DL3 /// KIR3DS1 (11738374_at) / Fold change /veh KIR2DL2 /// KIR2DL4 /// KIR2DL5A /// KIR2DL5B /// KIR2DS1 /// KIR2DS2 /// KIR2DS3 /// KIR2DS4 /// KIR3DL3 /// KIR3DL3 /// KIR3DS1 (11738374_at) / RFU C1QL1 (11718748_at) / Fold change /veh C1QL1 (11718748_at) / RFU TMPRSS4 (11747572_a_at) / Fold change /veh TMPRSS4 (11747572_a_at) / RFU HAMP (11756126_x_at) / Fold change /veh HAMP (11756126_x_at) / RFU RNFT2 (11725882_a_at) / Fold change /veh RNFT2 (11725882_a_at) / RFU NR4A2 (11747474_a_at) / Fold change /veh NR4A2 (11747474_a_at) / RFU ABCC12 (11746883_a_at) / Fold change /veh ABCC12 (11746883_a_at) / RFU TMEM136 (11760407_x_at) / Fold change /veh TMEM136 (11760407_x_at) / RFU CLDN22 /// WWC2 (11732394_at) / Fold change /veh CLDN22 /// WWC2 (11732394_at) / RFU HLA-DPB1 (11760878_x_at) / Fold change /veh HLA-DPB1 (11760878_x_at) / RFU SPINT1 (11716480_a_at) / Fold change /veh SPINT1 (11716480_a_at) / RFU GAP43 (11754022_s_at) / Fold change /veh GAP43 (11754022_s_at) / RFU A4GNT (11735810_at) / Fold change /veh A4GNT (11735810_at) / RFU PRB3 (11715151_x_at) / Fold change /veh PRB3 (11715151_x_at) / RFU TUBB4B (11761932_at) / Fold change /veh TUBB4B (11761932_at) / RFU CAPN14 (11732068_a_at) / Fold change /veh CAPN14 (11732068_a_at) / RFU TMCC2 (11721928_a_at) / Fold change /veh TMCC2 (11721928_a_at) / RFU IRGQ (11745062_a_at) / Fold change /veh IRGQ (11745062_a_at) / RFU FAM174B (11720279_a_at) / Fold change /veh FAM174B (11720279_a_at) / RFU TMPRSS4 (11748680_a_at) / Fold change /veh TMPRSS4 (11748680_a_at) / RFU FAM212B (11763350_a_at) / Fold change /veh FAM212B (11763350_a_at) / RFU PLEKHG5 (11743358_a_at) / Fold change /veh PLEKHG5 (11743358_a_at) / RFU ZSCAN30 (11745921_a_at) / Fold change /veh ZSCAN30 (11745921_a_at) / RFU CMKLR1 (11741424_a_at) / Fold change /veh CMKLR1 (11741424_a_at) / RFU LOC101060620 /// MAPK8IP1 (11723275_at) / Fold change /veh LOC101060620 /// MAPK8IP1 (11723275_at) / RFU SPTSSB (11747773_x_at) / Fold change /veh SPTSSB (11747773_x_at) / RFU PRSS12 (11739890_at) / Fold change /veh PRSS12 (11739890_at) / RFU BIN1 (11741810_x_at) / Fold change /veh BIN1 (11741810_x_at) / RFU WNT11 (11732464_a_at) / Fold change /veh WNT11 (11732464_a_at) / RFU C10orf10 (11716521_a_at) / Fold change /veh C10orf10 (11716521_a_at) / RFU C5orf56 (11738089_at) / Fold change /veh C5orf56 (11738089_at) / RFU CYB561 (11721691_x_at) / Fold change /veh CYB561 (11721691_x_at) / RFU ANKRD19P (11752326_a_at) / Fold change /veh ANKRD19P (11752326_a_at) / RFU OR2T12 /// OR2T33 /// OR2T8 (11738714_s_at) / Fold change /veh OR2T12 /// OR2T33 /// OR2T8 (11738714_s_at) / RFU VCAN (11748164_a_at) / Fold change /veh VCAN (11748164_a_at) / RFU JSRP1 (11732532_at) / Fold change /veh JSRP1 (11732532_at) / RFU KRTAP10-11 (11738290_x_at) / Fold change /veh KRTAP10-11 (11738290_x_at) / RFU MYO3A (11730013_a_at) / Fold change /veh MYO3A (11730013_a_at) / RFU EBF3 (11725865_a_at) / Fold change /veh EBF3 (11725865_a_at) / RFU CAMK2N1 (11719241_x_at) / Fold change /veh CAMK2N1 (11719241_x_at) / RFU C5orf56 (11738088_a_at) / Fold change /veh C5orf56 (11738088_a_at) / RFU OLFML3 (11715873_a_at) / Fold change /veh OLFML3 (11715873_a_at) / RFU LOC100653217 /// NTM (11731650_a_at) / Fold change /veh LOC100653217 /// NTM (11731650_a_at) / RFU MAPK11 (11762145_a_at) / Fold change /veh MAPK11 (11762145_a_at) / RFU FIZ1 (11724087_x_at) / Fold change /veh FIZ1 (11724087_x_at) / RFU OASL (11726364_x_at) / Fold change /veh OASL (11726364_x_at) / RFU SOX15 (11748057_x_at) / Fold change /veh SOX15 (11748057_x_at) / RFU CD79A (11719716_a_at) / Fold change /veh CD79A (11719716_a_at) / RFU HIST1H1D (11736915_at) / Fold change /veh HIST1H1D (11736915_at) / RFU CASKIN2 (11723855_a_at) / Fold change /veh CASKIN2 (11723855_a_at) / RFU LOC730098 (11760151_x_at) / Fold change /veh LOC730098 (11760151_x_at) / RFU OR4N2 (11742367_at) / Fold change /veh OR4N2 (11742367_at) / RFU PRRT2 (11749266_a_at) / Fold change /veh PRRT2 (11749266_a_at) / RFU SNX32 (11753110_a_at) / Fold change /veh SNX32 (11753110_a_at) / RFU CDHR5 (11726645_a_at) / Fold change /veh CDHR5 (11726645_a_at) / RFU RCAN1 (11760418_a_at) / Fold change /veh RCAN1 (11760418_a_at) / RFU FAM167A (11723789_a_at) / Fold change /veh FAM167A (11723789_a_at) / RFU FAM26E (11764081_at) / Fold change /veh FAM26E (11764081_at) / RFU ISYNA1 (11749810_s_at) / Fold change /veh ISYNA1 (11749810_s_at) / RFU ACY1 (11761880_at) / Fold change /veh ACY1 (11761880_at) / RFU 11764098_at / Fold change /veh 11764098_at / RFU SAMD14 (11745864_x_at) / Fold change /veh SAMD14 (11745864_x_at) / RFU NPB (11741838_a_at) / Fold change /veh NPB (11741838_a_at) / RFU TMPRSS6 (11731388_a_at) / Fold change /veh TMPRSS6 (11731388_a_at) / RFU KRTAP10-2 (11738614_at) / Fold change /veh KRTAP10-2 (11738614_at) / RFU ARHGAP8 /// PRR5-ARHGAP8 (11727945_x_at) / Fold change /veh ARHGAP8 /// PRR5-ARHGAP8 (11727945_x_at) / RFU KRTAP5-7 /// NADSYN1 (11734609_at) / Fold change /veh KRTAP5-7 /// NADSYN1 (11734609_at) / RFU RASL12 (11751679_a_at) / Fold change /veh RASL12 (11751679_a_at) / RFU CDKN2B (11736163_a_at) / Fold change /veh CDKN2B (11736163_a_at) / RFU PRF1 (11729649_at) / Fold change /veh PRF1 (11729649_at) / RFU, ZNF638 /// ZNF638-IT1 / Fold change vs veh, ZNF638 /// ZNF638-IT1 / RFU, PANK3 / Fold change vs veh, PANK3 / RFU, SH3YL1 / Fold change vs veh, SH3YL1 / RFU, ZEB2 / Fold change vs veh, ZEB2 / RFU, NRIP1 / Fold change vs veh, NRIP1 / RFU, PTTG1IP / Fold change vs veh, PTTG1IP / RFU, CAPN2 / Fold change vs veh, CAPN2 / RFU, MED14 / Fold change vs veh, MED14 / RFU, SNORA58 / Fold change vs veh, SNORA58 / RFU, C1orf63 / Fold change vs veh, C1orf63 / RFU, LRRFIP1 / Fold change vs veh, LRRFIP1 / RFU, NDUFAF7 / Fold change vs veh, NDUFAF7 / RFU, SLC12A2 / Fold change vs veh, SLC12A2 / RFU, IBTK / Fold change vs veh, IBTK / RFU, ESF1 / Fold change vs veh, ESF1 / Fold change vs veh, TMEM50B / RFU, TAOK1 / Fold change vs veh, TAOK1 / RFU, ACBD3 / Fold change vs veh, ACBD3 / RFU, TMA16 / Fold change vs veh, TMA16 / RFU, RWDD3 / Fold change vs veh, RWDD3 / RFU, BCAT1 / Fold change vs veh, BCAT1 / RFU, EDEM3 / Fold change vs veh, EDEM3 / RFU, TMEM33 / Fold change vs veh, TMEM33 / RFU, WDR75 / Fold change vs veh, WDR75 / RFU, AHCTF1 / Fold change vs veh, AHCTF1 / RFU, TFRC / Fold change vs veh, TFRC / RFU, ZDHHC17 / Fold change vs veh, ZDHHC17 / RFU, NOM1 / Fold change vs veh, NOM1 / RFU, ARL8B / Fold change vs veh, ARL8B / RFU, ZBTB11 / Fold change vs veh, ZBTB11 / RFU, TAMM41 / Fold change vs veh, TAMM41 / RFU, KIAA1704 /// LOC100996395 / Fold change vs veh, KIAA1704 /// LOC100996395 / RFU, ING1 / Fold change vs veh, ING1 / RFU, TRMT61B / Fold change vs veh, TRMT61B / RFU, FUBP3 / Fold change vs veh, FUBP3 / RFU, TP53 / Fold change vs veh, TP53 / RFU, TNKS2 / Fold change vs veh, TNKS2 / RFU, ZFP14 / Fold change vs veh, ZFP14 / RFU, ACTR2 / Fold change vs veh, ACTR2 / RFU, PPP3R1 / Fold change vs veh, PPP3R1 / RFU, PIK3R1 / Fold change vs veh, PIK3R1 / RFU, HNRNPA1 / Fold change vs veh, HNRNPA1 / RFU, RNF170 / Fold change vs veh, RNF170 / RFU, ZNF28 / Fold change vs veh, ZNF28 / RFU, RNGTT / Fold change vs veh, RNGTT / RFU, OGT / Fold change vs veh, OGT / RFU, BRD1 / Fold change vs veh, BRD1 / RFU, MARS / Fold change vs veh, MARS / RFU, ZNF655 / Fold change vs veh, ZNF655 / RFU, FAHD1 / Fold change vs veh, FAHD1 / RFU, BDP1 / Fold change vs veh, BDP1 / RFU, LRRCC1 / Fold change vs veh, LRRCC1 / RFU, ARID1A / Fold change vs veh, ARID1A / RFU, ZNF146 / Fold change vs veh, ZNF146 / RFU, ZNF330 / Fold change vs veh, ZNF330 / RFU, GPN3 / Fold change vs veh, GPN3 / RFU, C9orf123 / Fold change vs veh, C9orf123 / RFU, N4BP2L2 / Fold change vs veh, N4BP2L2 / RFU, ARFIP1 / Fold change vs veh, ARFIP1 / RFU, FAM179B / Fold change vs veh, FAM179B / RFU, BCL10 / Fold change vs veh, BCL10 / RFU, UHRF1BP1L / Fold change vs veh, UHRF1BP1L / RFU, BET1 / Fold change vs veh, BET1 / RFU, CNOT2 / Fold change vs veh, CNOT2 / RFU, ZNF268 / Fold change vs veh, ZNF268 / Fold change vs veh, ZNF507 / RFU, DGCR2 / Fold change vs veh, DGCR2 / RFU, WDSUB1 / Fold change vs veh, WDSUB1 / Fold change vs veh, HSP90B1 /// MIR3652 / RFU, ADSS / Fold change vs veh, ADSS / RFU, GK / Fold change vs veh, GK / RFU, ZNF148 / Fold change vs veh, ZNF148 / RFU, TAF9 / Fold change vs veh, TAF9 / RFU, SLC1A5 / Fold change vs veh, SLC1A5 / RFU, SLMO2 / Fold change vs veh, SLMO2 / RFU, ABCC4 / Fold change vs veh, ABCC4 / RFU, LOC101060439 /// RAP1B / Fold change vs veh, LOC101060439 /// RAP1B / RFU, RFX7 / Fold change vs veh, RFX7 / RFU, GTPBP10 / Fold change vs veh, GTPBP10 / RFU, CNEP1R1 / Fold change vs veh, CNEP1R1 / RFU, BIVM-ERCC5 /// ERCC5 / Fold change vs veh, BIVM-ERCC5 /// ERCC5 / RFU, ILF3 / Fold change vs veh, ILF3 / RFU 11762660_at / Fold change /veh 11762660_at / RFU VCAN (11757783_s_at) / Fold change /veh VCAN (11757783_s_at) / RFU DDX43 (11728927_at) / Fold change /veh DDX43 (11728927_at) / RFU KRT8 (11758188_x_at) / Fold change /veh KRT8 (11758188_x_at) / RFU NKD1 (11759106_at) / Fold change /veh NKD1 (11759106_at) / RFU SRD5A1 (11742802_a_at) / Fold change /veh SRD5A1 (11742802_a_at) / RFU TPSAB1 /// TPSB2 (11721975_s_at) / Fold change /veh TPSAB1 /// TPSB2 (11721975_s_at) / RFU GSTM3 (11746129_a_at) / Fold change /veh GSTM3 (11746129_a_at) / RFU IL23R (11737362_x_at) / Fold change /veh IL23R (11737362_x_at) / RFU TMEM51 (11727254_a_at) / Fold change /veh TMEM51 (11727254_a_at) / RFU PIWIL2 (11732686_x_at) / Fold change /veh PIWIL2 (11732686_x_at) / RFU ORM1 (11744905_x_at) / Fold change /veh ORM1 (11744905_x_at) / RFU CCDC152 (11743942_at) / Fold change /veh CCDC152 (11743942_at) / RFU ECM1 (11717891_a_at) / Fold change /veh ECM1 (11717891_a_at) / RFU IL23R (11748794_a_at) / Fold change /veh IL23R (11748794_a_at) / RFU TNFAIP8L3 (11732012_x_at) / Fold change /veh TNFAIP8L3 (11732012_x_at) / RFU MBOAT4 (11741988_at) / Fold change /veh MBOAT4 (11741988_at) / RFU 11764193_at / Fold change /veh 11764193_at / RFU TMEM53 (11763286_at) / Fold change /veh TMEM53 (11763286_at) / RFU MAGEB2 (11727129_at) / Fold change /veh MAGEB2 (11727129_at) / RFU TMEM200A (11744735_a_at) / Fold change /veh TMEM200A (11744735_a_at) / RFU CCDC152 (11751479_a_at) / Fold change /veh CCDC152 (11751479_a_at) / RFU FAM211A (11726209_a_at) / Fold change /veh FAM211A (11726209_a_at) / RFU RGS16 (11746705_a_at) / Fold change /veh RGS16 (11746705_a_at) / RFU VCAN (11755009_s_at) / Fold change /veh VCAN (11755009_s_at) / RFU RHOB (11743442_s_at) / Fold change /veh RHOB (11743442_s_at) / RFU RGS16 (11720943_a_at) / Fold change /veh RGS16 (11720943_a_at) / RFU RGS16 (11720944_at) / Fold change /veh RGS16 (11720944_at) / RFU, VPS4B / Fold change vs veh, VPS4B / RFU, CREB1 / Fold change vs veh, CREB1 / RFU, DNAJC13 / Fold change vs veh, DNAJC13 / RFU, GNAQ / Fold change vs veh, GNAQ / RFU, CDK5R1 / Fold change vs veh, CDK5R1 / RFU, ZRANB3 / Fold change vs veh, ZRANB3 / RFU, CUL4A / Fold change vs veh, CUL4A / RFU, CCNY / Fold change vs veh, CCNY / RFU, UFL1 / Fold change vs veh, UFL1 / RFU, COG3 / Fold change vs veh, COG3 / RFU, DIAPH2 / Fold change vs veh, DIAPH2 / RFU, SKA2 / Fold change vs veh, SKA2 / RFU, AFF3 / Fold change vs veh, AFF3 / RFU, LMF1 / Fold change vs veh, LMF1 / RFU, IPO11 / Fold change vs veh, IPO11 / RFU, DFFB / Fold change vs veh, DFFB / RFU, FOXP1 / Fold change vs veh, FOXP1 / RFU, CARD8 / Fold change vs veh, CARD8 / RFU, STRN3 / Fold change vs veh, STRN3 / RFU, ADK / Fold change vs veh, ADK / RFU, RASSF2 / Fold change vs veh, RASSF2 / RFU, WIPF1 / Fold change vs veh, WIPF1 / RFU, LARP1B / Fold change vs veh, LARP1B / RFU, RASA1 / Fold change vs veh, RASA1 / RFU, RB1 / Fold change vs veh, RB1 / RFU, PPFIA1 / Fold change vs veh, PPFIA1 / RFU, MAT2A / Fold change vs veh, MAT2A / RFU, CCT5 / Fold change vs veh, CCT5 / RFU, WDR92 / Fold change vs veh, WDR92 / RFU, CUX1 / Fold change vs veh, CUX1 / RFU, TTC7A / Fold change vs veh, TTC7A / RFU, TMEM135 / Fold change vs veh, TMEM135 / RFU, DEPTOR / Fold change vs veh, DEPTOR / RFU, CPM / Fold change vs veh, CPM / RFU, DNAJB6 / Fold change vs veh, DNAJB6 / RFU, CACNA2D3 / Fold change vs veh, CACNA2D3 / RFU, DTX4 / Fold change vs veh, DTX4 / RFU, TFCP2 / Fold change vs veh, TFCP2 / RFU, GMCL1 /// GMCL1P1 / Fold change vs veh, GMCL1 /// GMCL1P1 / RFU, AEBP2 / Fold change vs veh, AEBP2 / RFU, SNHG1 /// SNORD22 /// SNORD25 /// SNORD26 /// SNORD27 /// SNORD28 /// SNORD29 /// SNORD31 / Fold change vs veh, SNHG1 /// SNORD22 /// SNORD25 /// SNORD26 /// SNORD27 /// SNORD28 /// SNORD29 /// SNORD31 / Fold change (Aza/veh), C12orf56 (ProbeSet 11735607_a_at) / Fold change (ACY-1035/veh), C12orf56 (ProbeSet 11735607_a_at) / Fold change (Aza/veh), FGFR1OP (ProbeSet 11751329_s_at) / Fold change (ACY-1035/veh), FGFR1OP (ProbeSet 11751329_s_at) / Fold change (Aza/veh), VPS36 (ProbeSet 11739960_a_at) / Fold change (ACY-1035/veh), VPS36 (ProbeSet 11739960_a_at) / RFU SYPL1 (11715823_x_at) / Fold change /veh SYPL1 (11715823_x_at) / RFU IGFBP7 (11715501_s_at) / Fold change /veh IGFBP7 (11715501_s_at) / RFU REEP3 (11722064_at) / Fold change /veh REEP3 (11722064_at) / RFU IGLL1 (11728026_x_at) / Fold change /veh IGLL1 (11728026_x_at): dose or concentration left out as unconfirmed
Settings: ProbeSet 11743567_s_at; LIST B

In the case of `Nc1ncn([C@@H]2O[C@H](CO)[C@@H](O)[C@H]2O)c(=O)n1` [azacitidine], the “RFU, ACBD3” value is reported as 255.44 RFU.
